Consider one compound from US9381255B2, “Formulations comprising T3 nanoparticles” (Avant Garde Therapeutics and Technologies LLC, priority 2009, dated 2016).

The data set is described as follows: Blood levels of T3 after intraperitoneal administration in mice. The data set is classed as in vivo. How it is done: This T3-nanoparticle is administered intraperitoneally in mice.

In the case of `N[C@@H](Cc1cc(I)c(Oc2ccc(O)c(I)c2)c(I)c1)C(=O)O` [free T3, triiodothyronine], the T3 blood levels result (intraperitoneal injection, FIG. 8B) is “increased T3 blood levels which were followed by a subsequent leveling off”. Besides, where the note is “intraperitoneal, FIG. 8A”, the “amount of T3 remaining in the blood over time” value is reported as “A lesser amount of T3 remains over time”.
